# Patent publication US20200031778A1, “NOVEL 5-SUBSTITUTED IMIDAZOLYLMETHYL DERIVATIVES” (Bayer CropScience Aktiengesellschaft, priority 2016, published 2020)
# Key:
# Uromyces appendiculatus [1] = assay: Example E: in vivo preventive test on Uromyces appendiculatus (bean rust); settings: 264 h, read-out: efficacy
# Procedure: Example E: In Vivo Preventive Test on Uromyces Appendiculatus (Bean Rust)
# (§1) The active ingredients were made soluble and homogenized in a mixture of Dimethyl sulfoxide/Acetone/Tween® 80 and then diluted in water to the desired concentration.
# The young plants of bean were treated by spraying the active ingredient prepared as described above. Control plants were treated only with an aqueous solution of Acetone/Dimethyl sulfoxide/Tween® 80.
# After 24 hours, the plants were contaminated by spraying the leaves with an aqueous suspension of Uromyces appendiculatus spores. The contaminated bean plants were incubated for 24 hours at 20° C. and at 100% relative humidity and then for 10 days at 20° C. and at 70-80% relative humidity.
# (§2) The test was evaluated 11 days after the inoculation. 0% means an efficacy which corresponds to that of the control plants while an efficacy of 100% means that no disease was observed.
# Sphaerotheca fuliginea [2] = assay: Example D: in vivo preventive test on Sphaerotheca fuliginea (powdery mildew on cucurbits); settings: Podosphaera fuliginea, 360 h, read-out: efficacy
# Procedure: Example D: In Vivo Preventive Test on Sphaerotheca Fuliginea (Powdery Mildew on Cucurbits)
# as §1
# The young plants of gherkin were treated by spraying the active ingredient prepared as described above. Control plants were treated only with an aqueous solution of Acetone/Dimethyl sulfoxide/Tween® 80.
# After 24 hours, the plants were contaminated by spraying the leaves with an aqueous suspension of Sphaerotheca fuliginea spores. The contaminated gherkin plants were incubated for 72 hours at 18° C. and at 100% relative humidity and then for 12 days at 20° C. and at 70-80% relative humidity.
# The test was evaluated 15 days after the inoculation. 0% means an efficacy which corresponds to that of the control plants while an efficacy of 100% means that no disease was observed.
# Septoria tritici [3] = assay: Example C: in vivo preventive test on Septoria tritici (leaf spot on wheat); settings: Zymoseptoria tritici, 576 h, read-out: efficacy
# Procedure: Example C: In Vivo Preventive Test on Septoria Tritici (Leaf Spot on Wheat)
# as §1
# (§3) The young plants of wheat were treated by spraying the active ingredient prepared as described above. Control plants were treated only with an aqueous solution of Acetone/Dimethyl sulfoxide/Tween® 80.
# After 24 hours, the plants were contaminated by spraying the leaves with an aqueous suspension of Septoria tritici spores. The contaminated wheat plants were incubated for 72 hours at 18° C. and at 100% relative humidity and then for 21 days at 20° C. and at 90% relative humidity.
# The test was evaluated 24 days after the inoculation. 0% means an efficacy which corresponds to that of the control plants while an efficacy of 100% means that no disease was observed.
# Puccinia recondita [4] = assay: Example B: in vivo preventive test on Puccinia recondita (brown rust on wheat); settings: 264 h, read-out: efficacy
# Procedure: Example B: In Vivo Preventive Test on Puccinia Recondita (Brown Rust on Wheat)
# as §1, §3
# After 24 hours, the plants were contaminated by spraying the leaves with an aqueous suspension of Puccinia recondita spores. The contaminated wheat plants were incubated for 24 hours at 20° C. and at 100% relative humidity and then for 10 days at 20° C. and at 70-80% relative humidity.
# as §2
# [5] = Log P by HPLC on reversed phase columns (EEC directive 79/831 Annex V.A8; methods [a], [b], [c]); type: physicochemical
# In short: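 Reversed-phase HPLC with LC-UV detection, 10→95% acetonitrile linear gradient; aqueous eluent 0.1% formic acid [a], 0.001 M ammonium acetate, neutral [b], or 0.1% phosphoric acid [c]. Calibrated against C3–C16 alkan-2-ones of known Log P by retention-time linear interpolation; multiple values within a method separated by "+".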
# Puccinia recondita [6] = assay: Example IX-A: in vivo preventive test on Puccinia recondita (brown rust on wheat); settings: 264 h, compounds of formula IX, 500 ppm of active ingredient, wheat plants, preventive spray, evaluated 11 days after inoculation, read-out: efficacy
# In short: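 Young wheat plants sprayed with compound in DMSO/acetone/Tween 80 diluted in water, inoculated 24 h later with spore suspension. Incubated 24 h at 20 °C, 100% RH, then 10 days at 20 °C, 70-80% RH. Efficacy scored 11 days post-inoculation, 0% equal to solvent-treated controls, 100% no disease.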
# Sphaerotheca fuliginea [7] = assay: Example IX-C: in vivo preventive test on Sphaerotheca fuliginea (powdery mildew on cucurbits); settings: Podosphaera fuliginea, 360 h; compounds of formula IX; 500 ppm of active ingredient; gherkin plants, preventive spray; evaluated 15 days after inoculation; read-out: efficacy
# In short: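 Young gherkin plants sprayed with compound in DMSO/acetone/Tween 80 diluted in water, then inoculated 24 h later with Sphaerotheca fuliginea spores. Kept 72 h at 18 °C/100% RH, then 12 days at 20 °C/70-80% RH; efficacy scored 15 days post-inoculation, 0% = control, 100% = no disease.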
# Septoria tritici [8] = assay: Example IX-B: in vivo preventive test on Septoria tritici (leaf spot on wheat); settings: Zymoseptoria tritici, 576 h; compounds of formula IX; 500 ppm of active ingredient; wheat plants, preventive spray; evaluated 24 days after inoculation; read-out: efficacy
# In short: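 Wheat seedlings sprayed preventively with compound dissolved in DMSO/acetone/Tween 80 and diluted in water; solvent-only controls. Spore suspension of S. tritici sprayed 24 h later; 72 h at 18 °C/100% RH, then 21 days at 20 °C/90% RH. Efficacy scored 24 days post-inoculation, 0% = control, 100% = no disease.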
# Uromyces appendiculatus [9] = assay: Example IX-D: in vivo preventive test on Uromyces appendiculatus (bean rust); settings: 264 h, compounds of formula IX, 500 ppm of active ingredient, bean plants, preventive spray, evaluated 11 days after inoculation, read-out: efficacy
# In short: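 Young bean plants sprayed with compound (DMSO/acetone/Tween 80 in water), then inoculated 24 h later with Uromyces appendiculatus spores. Kept 24 h at 20° C, 100% RH, then 10 days at 20° C, 70–80% RH; efficacy scored 11 days post-inoculation, 0% = untreated control, 100% = no disease.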
# [10] = 500 ppm of active ingredient, bean plants, preventive spray, evaluated 11 days after inoculation
# [11] = 500 ppm of active ingredient, gherkin plants, preventive spray, evaluated 15 days after inoculation
# [12] = 500 ppm of active ingredient, wheat plants, preventive spray, evaluated 24 days after inoculation
# [13] = 500 ppm of active ingredient, wheat plants, preventive spray, evaluated 11 days after inoculation
# [14] = HPLC on reversed phase columns, method [a]
# [15] = HPLC on reversed phase column, method [a]
# [16] = reversed phase HPLC column, HPLC on reversed phase columns, method [a]
# [17] = reversed phase HPLC column, method [a]: LC-UV, acidic range, 0.1% formic acid in water and acetonitrile as eluent (linear gradient from 10% to 95% acetonitrile)
Structure (SMILES),"chromatographic logP [5, 16]","chromatographic logP [5, 17]",pest or weed control at 500 ppm (Sphaerotheca fuliginea [2]; [11]),pest or weed control at 500 ppm (Septoria tritici [3]; [12]),pest or weed control at 500 ppm (Puccinia recondita [4]; [13]),pest or weed control at 500 ppm (Puccinia recondita [6]),pest or weed control at 500 ppm (Sphaerotheca fuliginea [7]),pest or weed control at 500 ppm (Septoria tritici [8]),pest or weed control at 500 ppm (Uromyces appendiculatus [9]),further results
"CC(=O)OC(Cn1cncc1F)c1cnc(Oc2ccc(Cl)cc2)cc1C(F)(F)F (centres unmarked) [I-133, [1-[6-(4-chlorophenoxy)-4-(trifluoromethyl)-3-pyridyl]-2-(5-fluoroimidazol-1-yl)ethyl]acetate]",–,–,90 to 100%,90 to 100%,90 to 100%,–,–,–,–,pest or weed control at 500 ppm (Uromyces appendiculatus [1]; [10]): 90 to 100%
"C[Si](C)(C)C#Cc1ccc(C(O)(Cn2cncc2C#N)C2(F)CC2)c(Cl)c1 (centres unmarked) [I-394, 3-[2-[2-chloro-4-(2-trimethylsilylethynyl)phenyl]-2-(1-fluorocyclopropyl)-2-hydroxy-ethyl]imidazole-4-carbonitrile]",–,–,90 to 100%,90 to 100%,–,–,–,–,–,"chromatographic logP [5, 14]: 4.06"
"N#Cc1cncn1CC(O)(C#CC1CCCCC1)C1(Cl)CC1 (centres unmarked) [I-542, 1-[2-(1-chlorocyclopropyl)-4-cyclohexyl-2-hydroxybut-3-yn-1-yl]-1H-imidazole-5-carbonitrile]",–,–,–,–,–,–,–,–,–,"chromatographic logP [5, 15]: 2.96; pest or weed control at 500 ppm (Sphaerotheca fuliginea [2]): 80 to 89%"
"C#Cc1ccc(C(O)(Cn2cncc2C#N)C2(F)CC2)c(Cl)c1 (centres unmarked) [I-395, 3-[2-(2-chloro-4-ethynyl-phenyl)-2-(1-fluorocyclopropyl)-2-hydroxy-ethyl]imidazole-4-carbonitrile]",–,–,–,–,–,–,–,–,–,"chromatographic logP [5, 14]: 2.39; pest or weed control at 500 ppm (Uromyces appendiculatus [1]): 90 to 100%; pest or weed control at 500 ppm (Sphaerotheca fuliginea [2]): 90 to 100%; pest or weed control at 500 ppm (Septoria tritici [3]): 90 to 100%; pest or weed control at 500 ppm (Puccinia recondita [4]): 80 to 89%"
"COC(Cn1cncc1F)c1cnc(Oc2ccc(Cl)cc2)cc1C(F)(F)F (centres unmarked) [I-131, 2-(4-chlorophenoxy)-5-[2-(5-fluoroimidazol-1-yl)-1-methoxy-ethyl]-4-(trifluoromethyl)pyridine]",2.82,–,90 to 100%,90 to 100%,90 to 100%,–,–,–,–,–
"C#CCOc1ccc(C(O)(Cn2cncc2C#N)C2(F)CC2)c(F)c1 (centres unmarked) [I-506, 3-[2-(1-fluorocyclopropyl)-2-(2-fluoro-4-prop-2-ynoxy-phenyl)-2-hydroxy-ethyl]imidazole-4-carbonitrile]",–,–,–,–,–,–,–,–,–,"chromatographic logP [5, 15]: 2.23; pest or weed control at 500 ppm (Uromyces appendiculatus [1]): 80 to 89%; pest or weed control at 500 ppm (Sphaerotheca fuliginea [2]): 90 to 100%; pest or weed control at 500 ppm (Septoria tritici [3]): 90 to 100%; pest or weed control at 500 ppm (Puccinia recondita [4]): 80 to 89%"
O=C(Cn1cncc1Cl)c1ccc(Oc2ccc(Cl)cc2)cc1Br [IX-34],–,3.15,–,–,–,80 to 89%,90 to 100%,90 to 100%,90 to 100%,–
"O=C(Cn1cncc1Cl)c1ccc(Oc2ccc(Br)cc2)cc1Cl [IX-15, 1-[4-(4-bromophenoxy)-2-chloro-phenyl]-2-(5-chloroimidazol-1-yl)ethanone]",–,3.13,–,–,–,90 to 100%,90 to 100%,90 to 100%,90 to 100%,–
O=C(Cn1cncc1Br)c1ccc(Oc2ccc(Cl)cc2)cc1Br [IX-33],–,3.13,–,–,–,90 to 100%,90 to 100%,90 to 100%,90 to 100%,–
O=C(Cn1cncc1Cl)c1ccc(Oc2ccc(I)cc2)cc1Cl [IX-13],–,3.41,–,–,–,90 to 100%,90 to 100%,90 to 100%,90 to 100%,–
O=C(Cn1cncc1C(F)(F)F)c1ccc(Oc2ccc(Cl)cc2)cc1Cl [IX-57],–,4.03,–,–,–,90 to 100%,90 to 100%,90 to 100%,80 to 89%,–
O=C(Cn1cncc1F)c1ccc(Oc2ccc(C(F)F)cc2)nc1C(F)(F)F [IX-134],–,2.48,–,–,–,80 to 89%,90 to 100%,90 to 100%,90 to 100%,–

# Continued, in another order:
"chromatographic logP [5, 16]","chromatographic logP [5, 17]",Structure (SMILES),pest or weed control at 500 ppm (Sphaerotheca fuliginea [2]; [11]),pest or weed control at 500 ppm (Septoria tritici [3]; [12]),pest or weed control at 500 ppm (Puccinia recondita [4]; [13]),pest or weed control at 500 ppm (Puccinia recondita [6]),pest or weed control at 500 ppm (Sphaerotheca fuliginea [7]),pest or weed control at 500 ppm (Septoria tritici [8]),pest or weed control at 500 ppm (Uromyces appendiculatus [9]),further results
2.37,–,"CC(O)(Cn1cncc1F)c1cnc(Oc2ccc(Br)cc2)cc1C(F)(F)F (centres unmarked) [I-210, 2-[6-(4-bromophenoxy)-4-(trifluoromethyl)-3-pyridyl]-1-(5-fluoroimidazol-1-yl)propan-2-ol]",90 to 100%,90 to 100%,70 to 79%,–,–,–,–,pest or weed control at 500 ppm (Uromyces appendiculatus [1]; [10]): 90 to 100%
3.31,–,"N#Cc1cncn1CC(O)c1ccc(Oc2ccc(Br)cc2)cc1Cl (centres unmarked) [I-40, 3-[2-[4-(4-bromophenoxy)-2-chloro-phenyl]-2-hydroxy-ethyl]imidazole-4-carbonitrile]",90 to 100%,80 to 89%,90 to 100%,–,–,–,–,pest or weed control at 500 ppm (Uromyces appendiculatus [1]; [10]): 90 to 100%
2.86,–,"CCCCC(O)(Cn1cncc1C#N)c1ccc(Cl)cc1 (centres unmarked) [I-256, 3-[2-(4-chlorophenyl)-2-hydroxy-hexyl]imidazole-4-carbonitrile]",90 to 100%,80 to 89%,80 to 89%,–,–,–,–,pest or weed control at 500 ppm (Uromyces appendiculatus [1]; [10]): 90 to 100%
1.57,–,"CCC(O)(Cn1cncc1C#N)c1ccc(F)cc1 (centres unmarked) [I-245, 3-[2-(4-fluorophenyl)-2-hydroxy-butyl]imidazole-4-carbonitrile]",90 to 100%,90 to 100%,–,–,–,–,–,–
2.21,–,"C=CC(C)C(O)(Cn1cncc1C#N)C1(Cl)CC1 (centres unmarked) [I-311, 1-[2-(1-chlorocyclopropyl)-2-hydroxy-3-methylpent-4-en-1-yl]-1H-imidazole-5-carbonitrile]",90 to 100%,90 to 100%,80 to 89%,–,–,–,–,pest or weed control at 500 ppm (Uromyces appendiculatus [1]; [10]): 90 to 100%
–,2.14,O=C(Cn1cncc1F)c1ccc(Oc2ccc(Cl)cc2)nc1F [IX-88],–,–,–,70 to 79%,90 to 100%,90 to 100%,80 to 89%,–
–,3.71,N#Cc1cncn1CC(=O)c1ccc(Oc2ccc(I)cc2)cc1Cl [IX-68],–,–,–,90 to 100%,90 to 100%,90 to 100%,90 to 100%,–
